# Earlier results in patent US8636973B2, “Method of producing pharmacologically pure crystals” (Biosyn Arzneimittel GmbH, priority 2010, dated 2014).
# Legend:
# [1] = Janitzki, solubility studies
# [2] = 14° C.
SMILES,temperature at which the form is stable / exists [1],solubility [2]
"O.O.O.O.O.O.O.O.O=[Se]([O-])[O-].[Na+].[Na+] [Na2SeO3×8 H2O, Na2SeO3×8H2O]",up to −8.7 °C,
"O=[Se]=O [SeO2, selenium dioxide]",,0.384 kg/l H2O
